In ChEMBL document CHEMBL1201862, “PubChem BioAssay data set” (2004):
Activity calls are given as the source filed them.

Legend:
[1] = inhibitors of SNCA 5'UTR-driven reporter translation, confirmation, H4 neuroglioma cells, luminescence (AID 1988); type: functional, cell-based
Vero = assay: cells; type: functional; conditions: Chlorocebus sabaeus
Streptococcus = assay: Group A Streptococcus viability loss, dose response, counter-screen for streptokinase expression inhibitor project, luminescence, BacTiterGlo (AID 1915); type: functional, organism-based;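 also: potency for reduction of bacterial viability or growth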
[2] = system: Streptococcus sp. 'group A'; assay: growth inhibition of control SK(-) GAS strain, dose response, counter-screen for streptokinase expression inhibitor project, luminescence, kanamycin, BacTiterGlo, confirmation (AID 1900); type: functional, organism-based
Streptokinase A = target: T1, Streptokinase A (Streptococcus pyogenes serotype M1, UniProt P10520); assay: S. pyogenes streptokinase expression inhibitors, potency, dose response, plasminogen activation absorbance, OD405 (AID 1914); type: functional, Streptococcus pyogenes M1 GAS;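 also: secreted streptokinase activity via plasminogen activation per viability signal from cell pellet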
T1 sequence (P10520 whole entry): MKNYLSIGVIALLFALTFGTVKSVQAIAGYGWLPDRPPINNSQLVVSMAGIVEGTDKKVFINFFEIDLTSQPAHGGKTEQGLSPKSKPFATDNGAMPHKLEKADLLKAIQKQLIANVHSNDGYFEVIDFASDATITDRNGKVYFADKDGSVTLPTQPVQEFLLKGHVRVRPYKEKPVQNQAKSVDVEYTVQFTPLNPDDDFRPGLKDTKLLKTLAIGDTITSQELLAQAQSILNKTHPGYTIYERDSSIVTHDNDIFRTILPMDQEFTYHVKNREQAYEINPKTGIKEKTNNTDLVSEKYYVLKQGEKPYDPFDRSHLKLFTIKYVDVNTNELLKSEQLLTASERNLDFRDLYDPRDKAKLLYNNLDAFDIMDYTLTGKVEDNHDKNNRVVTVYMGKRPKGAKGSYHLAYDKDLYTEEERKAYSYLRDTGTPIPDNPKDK

[3] = Luminescence Cell-Based Dose Response HTS to Identify Inhibitors of 5'UTR Stem-Loop Driven Prion Protein mRNA Translation in H4 Neuroglioblastoma Cells. [Related pubchem assays: 1827 (Project Summary), 1813 (Primary HTS)]; type: functional
[4] = inhibitors of firefly luciferase expression or activity, dose response, H4 neuroglioma cells, luminescence (AID 1990); type: functional, cell-based
[5] = Luminescence Cell-Based Dose Confirmation HTS to Identify Inhibitors of Polyadenylation.; type: functional
[6] = target: Peroxisome proliferator-activated receptor gamma/Nuclear receptor coactivator 1 (Homo sapiens, UniProt P37231); type: functional;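 also: agonist potency as compounds enhance coactivator SRC-1 recruitment to PPARgamma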
[7] = target: Peroxisome proliferator-activated receptor gamma/Nuclear receptor coactivator 3 (Homo sapiens, UniProt P37231); type: functional;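 also: agonist potency for raising coactivator recruitment to the receptor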
[8] = target: Peroxisome proliferator-activated receptor gamma/Nuclear receptor coactivator 2 (Homo sapiens, UniProt P37231); type: functional;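 also: agonist potency for raising coactivator recruitment to the receptor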
Bcl-2-like protein 10 = target: T2, Bcl-2-like protein 10 (Homo sapiens, UniProt Q9HD36); assay: Biochemical TR3 FP assay of Bcl-B inhibitor potency, EC50 (AID 1243); type: functional
T2 sequence (Q9HD36 whole entry): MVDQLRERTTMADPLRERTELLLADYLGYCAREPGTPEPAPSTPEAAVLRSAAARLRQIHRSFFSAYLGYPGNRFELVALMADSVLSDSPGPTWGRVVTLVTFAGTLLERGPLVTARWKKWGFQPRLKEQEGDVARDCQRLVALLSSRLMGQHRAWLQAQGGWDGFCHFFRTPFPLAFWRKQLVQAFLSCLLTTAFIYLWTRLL

NS3 = NS3 (Hepatitis C virus, UniProt A3EZJ3); assay: PubChem AID 2173; set-up: species or system Hepacivirus hominis
Cytochrome P450 2C19 = Cytochrome P450 2C19 (Homo sapiens, UniProt P33261); assay: Cytochrome panel assay with activity outcomes. Panel member name: p450-cyp2c19 Compounds with AC50 equal or less than 10 uM are considered active; type: functional; conditions: read-out: AC50
Cytochrome P450 2D6 = Cytochrome P450 2D6 (Homo sapiens, UniProt P10635);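 also: CYP2D6 member of a cytochrome P450 panel assay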
Insulin-degrading enzyme = target: T3, Insulin-degrading enzyme (Homo sapiens, UniProt P14735); assay: Dose Response: Fluorescence polarization-based cell-based high throughput dose response assay for inhibitors of insulin-degrading enzyme (IDE). [Related pubchem assays: 434962 (Primary screen (IDE inhibitors in singlicate)), 449730 (Counterscreen (Cytotoxicity in triplicate)), 435028 (Confirmation (IDE inhibitors in triplicate)), 434984 (Summary …; type: functional
T3 sequence (P14735 whole entry): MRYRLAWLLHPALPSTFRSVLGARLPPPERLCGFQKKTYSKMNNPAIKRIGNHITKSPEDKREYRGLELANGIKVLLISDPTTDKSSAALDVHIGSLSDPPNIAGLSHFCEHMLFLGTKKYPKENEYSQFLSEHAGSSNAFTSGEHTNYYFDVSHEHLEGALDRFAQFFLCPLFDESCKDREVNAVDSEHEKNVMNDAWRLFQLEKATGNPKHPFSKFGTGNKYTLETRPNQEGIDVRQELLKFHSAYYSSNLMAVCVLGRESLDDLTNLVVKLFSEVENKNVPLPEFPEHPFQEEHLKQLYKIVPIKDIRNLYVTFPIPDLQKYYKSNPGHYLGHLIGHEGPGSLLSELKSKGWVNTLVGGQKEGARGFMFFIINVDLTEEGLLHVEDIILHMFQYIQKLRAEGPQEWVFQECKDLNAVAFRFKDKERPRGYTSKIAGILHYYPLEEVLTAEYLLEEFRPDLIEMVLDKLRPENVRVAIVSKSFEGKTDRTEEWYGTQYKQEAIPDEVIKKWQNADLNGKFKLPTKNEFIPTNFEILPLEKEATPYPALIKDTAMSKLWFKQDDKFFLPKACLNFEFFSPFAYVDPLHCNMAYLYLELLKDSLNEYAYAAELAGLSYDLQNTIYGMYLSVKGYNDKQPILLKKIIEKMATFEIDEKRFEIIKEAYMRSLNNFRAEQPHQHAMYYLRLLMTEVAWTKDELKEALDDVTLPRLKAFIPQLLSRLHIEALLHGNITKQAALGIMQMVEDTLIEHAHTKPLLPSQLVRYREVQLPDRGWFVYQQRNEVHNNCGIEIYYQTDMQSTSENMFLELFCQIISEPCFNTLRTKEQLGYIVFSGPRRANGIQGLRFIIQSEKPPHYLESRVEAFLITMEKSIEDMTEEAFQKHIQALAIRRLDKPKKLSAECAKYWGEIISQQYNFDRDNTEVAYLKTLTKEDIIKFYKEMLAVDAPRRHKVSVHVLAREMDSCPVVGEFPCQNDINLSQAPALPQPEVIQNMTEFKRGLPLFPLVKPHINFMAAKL

[9] = Counterscreen for IDE inhibitors: Luminescence-based cell-based high throughput dose response assay to identify compounds that are cytotoxic to HEK cells. [Related pubchem assays: 434962 (Primary screen (IDE inhibitors in singlicate)), 449730 (Counterscreen (Cytotoxicity in triplicate)), 435028 (Confirmation (IDE inhibitors in triplicate)) …; type: functional; conditions: HEK293
[10] = inhibitors of Bluetongue virus cytopathic effect, confirmation, arbovirus, BSR cells (AID 1250); type: functional;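 also: protection from viral cytopathic effect measured as cell viability by ATP luminescence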
Ion channel NompC = Ion channel NompC (Danio rerio, UniProt Q7T1G6); assay: Fluorescence counterscreen assay for TRPML3 agonists: dose response cell-based high-throughput screening assay to identify agonists of the transient receptor potential channel N1 (TRPN1). [Related pubchem assays: 1526, 1424, 1448 ]; type: functional
Mucolipin-3 = target: T4, Mucolipin-3 (Homo sapiens, UniProt Q8TDD5); assay: Dose response cell-based high-throughput screening assay for agonists of the transient receptor potential channel ML3 (TRPML3). [Related pubchem assays: 1526, 1424, 1448 ]; type: functional
T4 sequence (Q8TDD5 whole entry): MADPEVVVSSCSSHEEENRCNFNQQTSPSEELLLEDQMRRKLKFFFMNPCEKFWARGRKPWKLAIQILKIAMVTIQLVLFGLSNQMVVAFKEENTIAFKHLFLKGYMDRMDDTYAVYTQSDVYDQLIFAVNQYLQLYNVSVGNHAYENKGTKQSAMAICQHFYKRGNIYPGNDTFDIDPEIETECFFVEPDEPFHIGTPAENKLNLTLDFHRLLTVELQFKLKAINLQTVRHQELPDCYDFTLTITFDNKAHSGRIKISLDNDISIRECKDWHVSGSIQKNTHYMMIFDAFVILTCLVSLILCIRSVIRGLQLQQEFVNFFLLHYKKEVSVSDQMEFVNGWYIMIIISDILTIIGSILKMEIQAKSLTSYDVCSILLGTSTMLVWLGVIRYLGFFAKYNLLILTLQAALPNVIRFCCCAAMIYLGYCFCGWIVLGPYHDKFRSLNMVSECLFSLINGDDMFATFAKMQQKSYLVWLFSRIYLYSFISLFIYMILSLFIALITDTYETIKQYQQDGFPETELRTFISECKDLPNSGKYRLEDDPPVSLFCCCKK

Leucine aminopeptidase = target: T5, Leucine aminopeptidase (Plasmodium falciparum 3D7, UniProt Q8IL11); assay: P. falciparum M17LAP inhibitors, primary screen, biochemical, fluorogenic H-Leu-NHMec substrate, 1536-well (AID 1619); type: functional
T5 sequence (Q8IL11 whole entry): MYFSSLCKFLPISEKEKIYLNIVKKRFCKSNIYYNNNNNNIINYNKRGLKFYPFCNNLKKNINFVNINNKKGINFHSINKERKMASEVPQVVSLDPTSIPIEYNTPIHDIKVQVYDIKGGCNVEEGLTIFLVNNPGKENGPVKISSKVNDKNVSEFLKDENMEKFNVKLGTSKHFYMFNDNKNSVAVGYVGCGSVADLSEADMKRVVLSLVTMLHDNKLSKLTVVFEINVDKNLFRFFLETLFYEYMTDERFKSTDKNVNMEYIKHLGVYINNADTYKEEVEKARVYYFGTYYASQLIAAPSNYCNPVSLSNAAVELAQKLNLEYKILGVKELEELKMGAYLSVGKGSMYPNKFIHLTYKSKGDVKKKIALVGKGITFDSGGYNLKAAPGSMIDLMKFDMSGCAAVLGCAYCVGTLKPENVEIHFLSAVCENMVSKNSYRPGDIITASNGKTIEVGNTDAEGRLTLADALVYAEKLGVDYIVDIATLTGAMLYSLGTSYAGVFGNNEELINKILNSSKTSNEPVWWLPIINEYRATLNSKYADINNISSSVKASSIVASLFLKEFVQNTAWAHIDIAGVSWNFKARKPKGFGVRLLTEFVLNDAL

NADPH oxidase 1 = target: T6, NADPH oxidase 1 (Homo sapiens, UniProt Q9Y5S8); type: functional, cell-based;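 also: Cell-based assay with luminescence read-out, IC50 derived from inhibitor dose-response curves; intracellular ROS from endogenous NOX1 in intact HT29 colon cancer cells; potency of inhibitors that lower the ROS luminescence signal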
T6 sequence (Q9Y5S8 whole entry): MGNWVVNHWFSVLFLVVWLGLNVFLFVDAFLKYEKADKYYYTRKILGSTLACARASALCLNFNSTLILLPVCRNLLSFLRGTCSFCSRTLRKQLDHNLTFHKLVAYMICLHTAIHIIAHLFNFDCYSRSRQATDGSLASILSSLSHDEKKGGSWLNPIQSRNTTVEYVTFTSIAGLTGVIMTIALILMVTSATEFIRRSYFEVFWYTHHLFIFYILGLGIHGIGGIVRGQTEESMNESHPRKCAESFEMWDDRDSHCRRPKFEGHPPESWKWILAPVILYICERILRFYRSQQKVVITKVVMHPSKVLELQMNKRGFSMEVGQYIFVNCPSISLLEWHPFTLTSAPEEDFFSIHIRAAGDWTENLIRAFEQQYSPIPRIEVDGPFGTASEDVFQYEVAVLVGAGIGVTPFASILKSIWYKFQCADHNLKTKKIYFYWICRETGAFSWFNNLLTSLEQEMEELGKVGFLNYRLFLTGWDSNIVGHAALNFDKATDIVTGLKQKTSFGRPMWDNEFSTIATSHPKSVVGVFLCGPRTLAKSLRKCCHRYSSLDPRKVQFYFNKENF

Sequence of Peroxisome proliferator-activated receptor gamma/Nuclear receptor coactivator 1 (P37231 whole entry): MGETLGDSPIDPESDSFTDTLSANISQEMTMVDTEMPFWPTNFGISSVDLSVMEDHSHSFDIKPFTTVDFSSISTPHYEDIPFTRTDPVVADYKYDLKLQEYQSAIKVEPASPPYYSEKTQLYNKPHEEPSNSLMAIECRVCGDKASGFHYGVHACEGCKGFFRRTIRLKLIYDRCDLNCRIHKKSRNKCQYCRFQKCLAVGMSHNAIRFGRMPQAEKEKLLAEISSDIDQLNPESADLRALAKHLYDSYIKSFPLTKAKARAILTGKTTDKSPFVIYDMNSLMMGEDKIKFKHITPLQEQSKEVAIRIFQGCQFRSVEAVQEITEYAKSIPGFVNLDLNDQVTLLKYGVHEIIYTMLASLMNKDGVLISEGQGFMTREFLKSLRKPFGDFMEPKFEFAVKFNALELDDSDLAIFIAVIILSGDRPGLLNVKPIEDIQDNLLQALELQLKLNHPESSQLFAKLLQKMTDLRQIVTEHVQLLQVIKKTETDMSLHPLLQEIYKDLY
Sequence of Peroxisome proliferator-activated receptor gamma/Nuclear receptor coactivator 1 (Q15788 whole entry, further chain): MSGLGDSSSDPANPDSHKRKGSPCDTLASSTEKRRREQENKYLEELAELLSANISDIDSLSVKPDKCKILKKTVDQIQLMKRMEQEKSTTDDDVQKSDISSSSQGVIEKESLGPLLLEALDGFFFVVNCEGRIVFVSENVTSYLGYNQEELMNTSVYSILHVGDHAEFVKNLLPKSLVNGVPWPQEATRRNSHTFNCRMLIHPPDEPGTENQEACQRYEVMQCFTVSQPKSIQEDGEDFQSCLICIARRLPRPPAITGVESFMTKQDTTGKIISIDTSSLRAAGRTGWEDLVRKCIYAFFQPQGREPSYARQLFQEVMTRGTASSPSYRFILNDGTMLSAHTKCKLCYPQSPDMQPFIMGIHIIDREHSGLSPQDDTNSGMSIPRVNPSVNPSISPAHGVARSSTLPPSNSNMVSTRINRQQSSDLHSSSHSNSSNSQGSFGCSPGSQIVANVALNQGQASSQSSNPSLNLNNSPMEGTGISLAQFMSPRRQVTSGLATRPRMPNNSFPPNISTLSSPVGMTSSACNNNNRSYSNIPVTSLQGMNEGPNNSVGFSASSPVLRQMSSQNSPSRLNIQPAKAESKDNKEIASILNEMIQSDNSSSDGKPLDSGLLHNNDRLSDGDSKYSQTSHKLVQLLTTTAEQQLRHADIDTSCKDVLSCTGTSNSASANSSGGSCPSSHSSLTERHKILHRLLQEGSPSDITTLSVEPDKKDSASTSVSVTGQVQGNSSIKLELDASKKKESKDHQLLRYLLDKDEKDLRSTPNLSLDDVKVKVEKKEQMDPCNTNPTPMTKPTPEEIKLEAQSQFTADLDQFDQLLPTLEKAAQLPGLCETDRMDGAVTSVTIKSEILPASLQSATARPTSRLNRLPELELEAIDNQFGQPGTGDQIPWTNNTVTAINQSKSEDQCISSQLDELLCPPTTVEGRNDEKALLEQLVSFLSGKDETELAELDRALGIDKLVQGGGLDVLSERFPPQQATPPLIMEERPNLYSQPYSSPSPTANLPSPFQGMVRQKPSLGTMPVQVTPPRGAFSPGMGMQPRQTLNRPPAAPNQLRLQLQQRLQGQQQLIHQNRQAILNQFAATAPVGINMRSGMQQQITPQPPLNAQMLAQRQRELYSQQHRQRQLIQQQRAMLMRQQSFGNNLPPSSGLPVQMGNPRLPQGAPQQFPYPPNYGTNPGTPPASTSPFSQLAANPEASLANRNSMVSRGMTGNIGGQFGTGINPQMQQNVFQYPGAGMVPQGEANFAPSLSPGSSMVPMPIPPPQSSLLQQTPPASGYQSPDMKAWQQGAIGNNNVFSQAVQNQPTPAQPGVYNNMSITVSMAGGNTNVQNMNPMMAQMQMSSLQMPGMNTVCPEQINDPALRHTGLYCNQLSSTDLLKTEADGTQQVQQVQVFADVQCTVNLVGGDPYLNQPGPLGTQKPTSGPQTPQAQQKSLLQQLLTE
Sequence of Peroxisome proliferator-activated receptor gamma/Nuclear receptor coactivator 2 (P37231 whole entry): as the sequence (P37231 whole entry) above
Sequence of Peroxisome proliferator-activated receptor gamma/Nuclear receptor coactivator 2 (Q15596 whole entry, further chain): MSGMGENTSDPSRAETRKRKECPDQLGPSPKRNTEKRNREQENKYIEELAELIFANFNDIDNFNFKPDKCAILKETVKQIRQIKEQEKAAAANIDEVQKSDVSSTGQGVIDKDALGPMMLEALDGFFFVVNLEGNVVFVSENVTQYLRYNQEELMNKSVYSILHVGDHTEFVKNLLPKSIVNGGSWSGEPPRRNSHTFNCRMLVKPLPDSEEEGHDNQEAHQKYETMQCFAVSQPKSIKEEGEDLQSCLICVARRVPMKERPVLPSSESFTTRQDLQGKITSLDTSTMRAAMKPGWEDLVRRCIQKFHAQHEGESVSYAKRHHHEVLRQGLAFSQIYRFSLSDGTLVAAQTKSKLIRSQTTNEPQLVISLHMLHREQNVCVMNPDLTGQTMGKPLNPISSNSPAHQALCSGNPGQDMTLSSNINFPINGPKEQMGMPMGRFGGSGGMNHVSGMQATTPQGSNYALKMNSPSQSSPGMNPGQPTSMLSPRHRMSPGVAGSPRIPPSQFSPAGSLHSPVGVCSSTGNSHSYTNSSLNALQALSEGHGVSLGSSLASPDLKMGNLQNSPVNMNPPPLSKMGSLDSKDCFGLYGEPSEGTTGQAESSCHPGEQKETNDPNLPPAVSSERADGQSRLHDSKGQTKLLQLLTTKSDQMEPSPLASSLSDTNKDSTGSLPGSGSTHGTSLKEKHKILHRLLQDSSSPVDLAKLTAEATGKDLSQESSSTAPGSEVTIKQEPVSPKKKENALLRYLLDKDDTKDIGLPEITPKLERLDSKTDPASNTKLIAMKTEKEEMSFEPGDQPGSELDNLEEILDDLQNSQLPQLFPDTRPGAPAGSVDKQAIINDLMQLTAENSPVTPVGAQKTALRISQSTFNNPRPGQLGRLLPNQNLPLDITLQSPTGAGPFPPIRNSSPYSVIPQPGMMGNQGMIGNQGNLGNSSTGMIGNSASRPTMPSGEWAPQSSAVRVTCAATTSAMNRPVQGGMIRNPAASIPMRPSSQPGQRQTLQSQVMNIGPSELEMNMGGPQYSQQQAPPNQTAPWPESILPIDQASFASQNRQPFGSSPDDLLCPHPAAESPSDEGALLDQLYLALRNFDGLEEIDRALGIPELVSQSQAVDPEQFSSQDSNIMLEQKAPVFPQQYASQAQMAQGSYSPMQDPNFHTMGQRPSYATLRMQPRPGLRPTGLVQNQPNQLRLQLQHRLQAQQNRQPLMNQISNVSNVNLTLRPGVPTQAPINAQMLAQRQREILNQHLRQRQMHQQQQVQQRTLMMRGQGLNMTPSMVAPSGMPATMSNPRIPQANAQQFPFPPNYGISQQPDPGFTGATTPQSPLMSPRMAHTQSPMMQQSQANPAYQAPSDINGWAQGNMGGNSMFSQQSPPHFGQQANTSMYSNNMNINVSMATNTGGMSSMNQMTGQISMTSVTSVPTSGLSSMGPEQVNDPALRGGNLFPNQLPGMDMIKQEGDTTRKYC
Sequence of Cytochrome P450 2D6 (P10635 whole entry): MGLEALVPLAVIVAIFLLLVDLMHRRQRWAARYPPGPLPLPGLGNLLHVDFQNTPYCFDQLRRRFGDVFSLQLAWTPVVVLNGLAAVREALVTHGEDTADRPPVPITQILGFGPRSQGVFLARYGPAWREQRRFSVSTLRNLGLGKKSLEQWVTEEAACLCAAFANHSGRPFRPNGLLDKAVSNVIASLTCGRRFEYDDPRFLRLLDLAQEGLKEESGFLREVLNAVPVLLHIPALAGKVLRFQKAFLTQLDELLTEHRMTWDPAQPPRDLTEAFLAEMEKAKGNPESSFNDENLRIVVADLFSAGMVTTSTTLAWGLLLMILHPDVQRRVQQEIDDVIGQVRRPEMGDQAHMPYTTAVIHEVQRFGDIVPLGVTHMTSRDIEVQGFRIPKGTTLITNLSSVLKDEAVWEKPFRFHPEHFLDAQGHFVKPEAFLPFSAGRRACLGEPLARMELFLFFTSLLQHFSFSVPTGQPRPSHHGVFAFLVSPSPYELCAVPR
Sequence of Cytochrome P450 2C19 (P33261 whole entry): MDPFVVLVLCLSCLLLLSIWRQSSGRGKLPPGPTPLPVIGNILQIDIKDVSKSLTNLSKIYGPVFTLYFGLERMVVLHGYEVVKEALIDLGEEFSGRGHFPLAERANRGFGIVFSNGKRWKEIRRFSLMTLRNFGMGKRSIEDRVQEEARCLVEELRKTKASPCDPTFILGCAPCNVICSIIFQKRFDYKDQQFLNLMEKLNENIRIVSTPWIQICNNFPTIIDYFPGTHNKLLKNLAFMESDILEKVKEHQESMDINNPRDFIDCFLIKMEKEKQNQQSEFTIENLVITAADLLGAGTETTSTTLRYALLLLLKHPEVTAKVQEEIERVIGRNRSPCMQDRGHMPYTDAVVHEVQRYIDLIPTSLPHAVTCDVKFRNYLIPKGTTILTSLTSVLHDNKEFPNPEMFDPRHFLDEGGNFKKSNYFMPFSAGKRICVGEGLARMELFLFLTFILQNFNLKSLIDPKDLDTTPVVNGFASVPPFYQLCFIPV

Compound: Cc1c(C(=O)Nc2nonc2-c2ccc(F)cc2)oc2ccc(F)cc12
- EC50 [1]: > 120 µM (not active)
- CC50 (Vero): 6.89 µM (active)
- EC50 (Streptococcus): > 150 µM (not active)
- EC50 [2]: 3.52 µM (active)
- EC50 (Streptokinase A): 27.7 µM (active)
- EC50 [3]: 12.9 µM (active)
- EC50 [4]: > 120 µM (not active)
- EC50 [5]: > 120 µM (not active)

Compound: COc1ccc(C(N)=NOC(=O)CN(C)S(=O)(=O)c2ccc(C)cc2)cc1
- EC50 [6]: > 79.4 µM (not active)
- EC50 [7]: > 79.4 µM (not active)
- EC50 [8]: > 79.4 µM (not active)

Compound: O=C(O)c1cccc2c1NC(c1ccc([N+](=O)[O-])cc1)C1CC=CC21 (stereo not drawn)
- EC50 (Bcl-2-like protein 10): 5.41 µM (active)

Compound: O=C1C(=Cc2cn(Cc3ccc(Cl)cc3)c3ccccc23)C(=O)c2ccccc21
- EC50 (Bcl-2-like protein 10): 14.4 µM (active)

Compound: O=C(O)c1cccc(-n2c(/C=C/c3ccccc3)nc3ccccc3c2=O)c1
- IC50 (NS3): 12.3 µM (not active)

Compound: CC(=O)c1cc(NC(=O)c2ccccc2)c(=O)oc1/C=C/N(C)C
- AC50 (Cytochrome P450 2C19): 39.8 µM (inconclusive)
- AC50 (Cytochrome P450 2D6): 0.178 µM (inconclusive)
- IC50 (Insulin-degrading enzyme): 8.93 µM (active)
- IC50 [9]: > 55.7 µM (not active)

Compound: COc1ccc2oc3cc(C)[n+]([O-])c(-c4ccc(Cl)cc4)c3c2c1
- IC50 [10]: > 100 µM (active)

Compound: COC(=O)c1sccc1NC(=O)c1ccc(Br)s1
- EC50 [6]: 8.67 µM (active)
- EC50 [7]: 12.2 µM (not active)
- EC50 [8]: < 8.82 µM (active)

Compound: Cc1ccc(S(=O)(=O)N2CCC(=O)N(C(COCc3ccc(C(F)(F)F)cc3)C(C)C)CC2)cc1 (stereo not drawn)
- EC50 (Ion channel NompC): > 29.9 µM (not active)
- EC50 (Mucolipin-3): 3.92 µM (active)

Compound: O=C(/C=C/c1ccco1)Nc1cc(Cl)ccc1C(=O)O
- IC50 (Leucine aminopeptidase): 74.4 µM (active)
- IC50 [10]: 36.7 µM (active)

Compound: c1ccc(-c2nc(-c3ccccc3)c(-c3ccccc3)[nH]2)cc1
- IC50 (NADPH oxidase 1): > 17 µM (not active)

Compound: COc1ccc2c(c1)Nc1ccccc1S2
- IC50 (NADPH oxidase 1): 0.913 µM (active)
